In PubChem BioAssay AID1963959 (Molecular Pharmacology Branch, DTP, NCI, 2024):
pIC50: −log10 of the molar value.

Test system: T-47D spheroids with HUVEC/MSC, viability
Assay: Anticancer human tumor T-47D cell line growth inhibition [PI3K];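 note: spheroids exposed to agents for seven days before reading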;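 for viability, T/C: percent of DMSO vehicle control luminescence so 100% = untreated growth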
Details: for pIC50: curve of first compound; for viability, T/C: stronger effect = lower value
Description: Combinatorial screen of targeted agents with the PI3K inhibitors inavolisib, alpelisib, duvelisib, and copanlisib in multi-cell type tumor spheroids
A high-throughput screen of multi-cell type tumor spheroids was designed to identify active combinations of targeted small molecules and PI3K pathway inhibitors. Complex spheroids include a stromal component modeled by human endothelial cells (HUVEC) and fibroblasts modeled by human mesenchymal stem cells (MSCs). The concentration ranges selected for each drug and investigational agent were based upon clinically achievable concentrations if the clinical Cmax of the agent was known.
Compounds. The drugs and investigational agents: inavolisib (NSC800729), alpelisib (NSC765974), duvelisib (NSC772469), copanlisib (NSC816437), ipatasertib (NSC767898), afuresertib (NSC778305), talazoparib (NSC767125), sapanisertib (NSC764658), selumetinib (NSC741078), tovorafenib (DAY101, NSC766906), vemurafenib (NSC761431), ravoxertinib (NSC781343), sotorasib (NSC818433), MRTX1133 (NSC 836407), abemaciclib (NSC 768073), palbociclib (NSC758247), venetoclax (NSC 766270), SY5609 (NSC837396), enzalutamide (NSC755605), and darolutamide (NSC825331), were obtained from the National Cancer Institute (NCI) Developmental Therapeutics Program Chemical Repository. The FDA-approved anticancer drug set is available from the NCI Developmental Therapeutics Program. […] The stock solutions were prepared in dimethyl sulfoxide (DMSO, Sigma-Aldrich, St. Louis, MO, cat. D2650) at 800-fold the tested concentration and stored at -70 degrees C prior to their use. All drugs and investigational agents were tested over a range starting from a high concentration at or near the clinical Cmax and decreasing in half-log increments. If the clinical Cmax for an agent had not been determined, the highest concentration tested was 10 microM.
Cell Culture. All cells were maintained in an incubator at 37 degrees C and 5% CO2 with 95% humidity. The PDC lines were cultured according to standard operating procedures established by the NCI PDMR (https://pdmr.cancer.gov/sops/default.htm). All PDCs were thawed and cultured in Matrigel-coated flasks prepared with a working solution of 1X Ham's F-12 nutrient mix, without supplementation (Invitrogen, Waltham, MA, cat. 11765054), 100 U/mL penicillin-streptomycin (Invitrogen, cat. 15140122), and 2.5% Matrigel (Corning Inc., Corning, NY, cat. 354248) for the first three passages. The 354836-022-R-J1-PDC, 475296-252-R-J1-PDC, and 997726-040-R-J2-PDC lines were cultured in 6A media, which includes advanced DMEM/F-12 (Thermo Fisher Scientific, cat. 12634028), 10 mM HEPES (Thermo Fisher Scientific, cat. 15630080), 1X GlutaMAX supplement (Thermo Fisher Scientific, cat. 35050061), 0.1 mg/mL primocin (InvivoGen, San Diego, CA, cat. ant-pm-2), 10% defined fetal bovine serum, heat inactivated (HyClone Laboratories Inc., Logan, UT, cat. SH30070.03HI), 50% L-WRN conditioned media (ATCC, cat. CRL-3276), 1.25 mM N-Acetyl-L-cysteine (Sigma-Aldrich, cat. A9165), 10 mM nicotinamide (Sigma-Aldrich, cat. N0636), 1X B-27 supplement (Thermo Fisher Scientific, cat. 17504044), 1X N-2 supplement (Thermo Fisher Scientific, cat. 17502048), and 10 microM Y-27632 dihydrochloride (Tocris Bioscience, Bristol, United Kingdom, cat. 1254). The 624824-186-R-J2-PDC line was cultured in 6C/Colon 1B media, which includes all 6A media components plus 50 ng/mL human EGF recombinant protein (Thermo Fisher Scientific, cat. PHG0311). […]

[1] = second compound 0.00316 µM, first compound 0.0316 µM
[2] = second compound 0.00316 µM, first compound 0.1 µM
[3] = second compound 0.00316 µM, first compound 0.316 µM
[4] = second compound 0.00316 µM, first compound 1 µM
[5] = second compound 0.00316 µM, first compound 3.16 µM
[6] = second compound 0.00316 µM, first compound 10 µM
[7] = second compound 0.01 µM, first compound 0.0316 µM
[8] = second compound 0.01 µM, first compound 0.1 µM
[9] = second compound 0.01 µM, first compound 0.316 µM
[10] = second compound 0.01 µM, first compound 1 µM
[11] = second compound 0.01 µM, first compound 3.16 µM
[12] = second compound 0.01 µM, first compound 10 µM
[13] = second compound 0.0316 µM, first compound 0.0316 µM
[14] = second compound 0.0316 µM, first compound 0.1 µM
[15] = second compound 0.0316 µM, first compound 0.316 µM
[16] = second compound 0.0316 µM, first compound 1 µM
[17] = second compound 0.0316 µM, first compound 3.16 µM
[18] = second compound 0.0316 µM, first compound 10 µM
[19] = second compound 0.1 µM, first compound 0.0316 µM
[20] = second compound 0.1 µM, first compound 0.1 µM
[21] = second compound 0.1 µM, first compound 0.316 µM
[22] = second compound 0.1 µM, first compound 1 µM
[23] = second compound 0.1 µM, first compound 3.16 µM
[24] = second compound 0.1 µM, first compound 10 µM
[25] = second compound 0.316 µM, first compound 0.0316 µM
[26] = second compound 0.316 µM, first compound 0.1 µM
[27] = second compound 0.316 µM, first compound 0.316 µM
[28] = second compound 0.316 µM, first compound 1 µM
[29] = second compound 0.316 µM, first compound 3.16 µM
[30] = second compound 0.316 µM, first compound 10 µM
[31] = second compound 1 µM, first compound 0.0316 µM
[32] = second compound 1 µM, first compound 0.1 µM
[33] = second compound 1 µM, first compound 0.316 µM
[34] = second compound 1 µM, first compound 1 µM
[35] = second compound 1 µM, first compound 3.16 µM
[36] = second compound 1 µM, first compound 10 µM

Work on `CC1(C)CCC(Nc2ncc(C(F)(F)F)c(-c3c[nH]c4c(P(C)(C)=O)c(C#N)ccc34)n2)CN1` (centres undefined) + COc1c(OCCCN2CCOCC2)ccc2c3n(c(=NC(=O)c4cnc(N)nc4)nc12)CCN3 yielded a pIC50 (second compound 0.00316 µM) of under 5.00, a pIC50 (second compound 0.01 µM) of under 5.00 and a pIC50 (second compound 0.0316 µM) of over 7.50. For the same compound, the pIC50 (second compound 0.1 µM) was over 7.50, the pIC50 (second compound 0.316 µM) was over 7.50 and the pIC50 (second compound 1 µM) was over 7.50. The viability, T/C [1] was 70.8%, the viability, T/C [2] was 60.4% and the viability, T/C [3] was 68%. The viability, T/C [4] was 74.5%, the viability, T/C [5] was 77.7% and the viability, T/C [6] was 57.5%. For the same compound, the viability, T/C [7] was 67.6%, the viability, T/C [8] was 62.4% and the viability, T/C [9] was 55.2%. For the same compound, the viability, T/C [10] was 50.2%, the viability, T/C [11] was 73.8% and the viability, T/C [12] was 46%. The viability, T/C [13] was 44.3%, the viability, T/C [14] was 42.6% and the viability, T/C [15] was 42.8%. It also gave a viability, T/C [16] of 38.8%, a viability, T/C [17] of 46.9% and a viability, T/C [18] of 14.1%. It also gave a viability, T/C [19] of 28%, a viability, T/C [20] of 33.8% and a viability, T/C [21] of 28.8%. For the same compound, the viability, T/C [22] was 29.8%, the viability, T/C [23] was 26.5% and the viability, T/C [24] was 8.25%. The viability, T/C [25] was 20%, the viability, T/C [26] was 24.4% and the viability, T/C [27] was 15.6%. For the same compound, the viability, T/C [28] was 19.1%, the viability, T/C [29] was 17.4% and the viability, T/C [30] was 3.95%. For the same compound, the viability, T/C [31] was 8.6%, the viability, T/C [32] was 12.8% and the viability, T/C [33] was 8.27%. The viability, T/C [34] was 7.59%, the viability, T/C [35] was 10.4% and the viability, T/C [36] was 2.66%.

`Cn1nccc1Nc1nccc(-c2ccn(C(CO)c3ccc(Cl)c(F)c3)c(=O)c2)n1` (centres undefined) + CC(Nc1ccc2c(c1)OCCn1cc(N3C(=O)OCC3C(F)F)nc1-2)C(N)=O was tested, and the pIC50 (second compound 0.00316 µM) was under 5.00, the pIC50 (second compound 0.01 µM) was under 5.00 and the pIC50 (second compound 0.0316 µM) was under 5.00. The pIC50 (second compound 0.1 µM) was under 5.00, the pIC50 (second compound 0.316 µM) was under 5.00 and the pIC50 (second compound 1 µM) was under 5.00. For the same compound, the viability, T/C [1] was 98.6%, the viability, T/C [2] was 97.4% and the viability, T/C [3] was 93.3%. For the same compound, the viability, T/C [4] was 96%, the viability, T/C [5] was 113% and the viability, T/C [6] was 109%. It also gave a viability, T/C [7] of 106%, a viability, T/C [8] of 92.8% and a viability, T/C [9] of 104%. For the same compound, the viability, T/C [10] was 106%, the viability, T/C [11] was 111% and the viability, T/C [12] was 99.6%. The viability, T/C [13] was 86.1%, the viability, T/C [14] was 85.2% and the viability, T/C [15] was 93.2%. The viability, T/C [16] was 99.7%, the viability, T/C [17] was 105% and the viability, T/C [18] was 85.7%. It also gave a viability, T/C [19] of 103%, a viability, T/C [20] of 100% and a viability, T/C [21] of 89.4%. It also gave a viability, T/C [22] of 92.9%, a viability, T/C [23] of 87% and a viability, T/C [24] of 92.3%. It also gave a viability, T/C [25] of 71.8%, a viability, T/C [26] of 71.3% and a viability, T/C [27] of 65.4%. It also gave a viability, T/C [28] of 67%, a viability, T/C [29] of 69.4% and a viability, T/C [30] of 71.3%. It also gave a viability, T/C [31] of 65.7%, a viability, T/C [32] of 60% and a viability, T/C [33] of 52%. For the same compound, the viability, T/C [34] was 47.4%, the viability, T/C [35] was 58.1% and the viability, T/C [36] was 57.1%.
